In patent US8765696B2, “Steroid compound” (Mikasa Seiyaku Co., Ltd., priority 2009, dated 2014):

Key:
[1] = tested on: croton oil-induced ear edema; assay: Test for croton oil-induced ear edema; assay type: in vivo; conditions: rat right auricle; for Edema suppression rate of 6 hours after administration of inflammatory agent (%): 6 hours after croton oil; for Edema suppression rate of 24 hours after administration of inflammatory agent (%): 24 hours after croton oil
Experimental: Croton oil ear edema test, which is a representative model for dermatitis, was used to study the pharmacological effect of compounds of the present invention.
Five individuals/group of rats of 5 weeks old (body weight, 128 g to 169 g) were used. One day before the test, the thickness of the right ear was measured under ether anesthesia using a dial thickness gauge, to obtain the Pre value. On the day of the test, 20 mg each of the ointments to be tested, which had been prepared to have various concentrations in white vaseline, was applied to the right auricle (both sides) of each rat, and a collar was then placed around the neck of the rat to prevent contacting/scratching and removal of the drug. Two hours later, the ointment was wiped off under ether anesthesia using absorbent cotton, and 0.1 mL of 5% croton oil (croton oil:ether:pyridine:distilled water=1:14:4:1) solution was applied dropwise to the both sides of the auricle while drying the solution with a drier (air blow), to induce ear edema. Six and 24 hours after the induction of the edema, the thickness of the right auricle was measured under ether anesthesia, and the edema rate and the edema suppression rate were calculated according to the equations below, which suppression rate is shown in Table 1.

[2] = tested on: croton oil-induced granuloma; assay: Test for croton oil-induced granuloma (air pouch exudate and thymus weight); assay type: in vivo, rat; conditions: male Wistar rats, 7 days, vs control group
Description: Using the croton oil granuloma test, which is a test method with which the local anti-inflammatory action and the systemic side effect can be evaluated at the same time, the pharmacological effect and the systemic side effect of the compounds of the present invention were studied.
Five individuals/group of male Wistar rats having body weights of 180 to 225 g were used, and hair on the back of these rats was shaved with a clipper under ether anesthesia, followed by preparing an air pouch by subcutaneous injection of 20 mL of air at the back. On the next day, 1 mL of cottonseed oil containing 1% croton oil was administered to the pouch. Each test drug was suspended in the croton oil-containing cottonseed oil before administration. Seven days later, blood was collected from abdominal aorta under ether anesthesia, and exudate in the pouch was collected and its fluid amount was measured. Further, the thymus was removed, and its weight was measured. The weight of the exudate and the weight of the thymus are shown in Table 2 as the suppression rate and the atrophy rate (%) with respect to those of the control group.

[3] = tested on: DNCB-induced dermatitis; assay: Test for DNCB-induced dermatitis (skin thickness and thymus weight); assay type: in vivo; conditions: rat, 0.1 mL once per day, 6 times
Experimental: The DNCB-induced dermatitis test, which is a representative model for allergic dermatitis, was used to study the pharmacological effect of the compound of the present invention.
Abdominal hair of rats (body weight, 205 to 230 g) under isoflurane anesthesia was shaved with an electric clipper and a shaver, and a test region having a size of 3 cm×4 cm was prepared, followed by applying 0.4 mL of 1% DNCB/acetone solution to the inside of the region, to carry out sensitization. Two weeks later, 1 mL of 1% DNCB/acetone solution was applied to the inside of the region to cause induction, and 4 days thereafter, reinduction was carried out. Two days after the reinduction, the skin was removed from the test region, and 5 predetermined positions were punched out using a punch having a diameter of 12 mm, followed by measuring the skin thickness using a dial thickness gauge. Further, to investigate the influence of side effects, the thymus was removed to measure its weight. Application of the test drug was carried out 4 hours after the first dermatitis induction such that 0.1 mL of the ointment is uniformly applied over the test region. Thereafter, the test drug was applied once per day, a total of 6 times until the next day of the reinduction (the day before removal of the skin). The skin thickness and the weight of the thymus are shown in Table 3 as the suppression rate and the atrophy rate (%) relative to those of the control group.

[4] = Amount of production of active metabolite in inflamed skin and non-inflamed skin; assay type: in vivo; conditions: hairless rat, 0.1 mL of 0.1% ointment, LC/MS/MS, Mean ± S.D.
Description: The compounds of the present invention have the advantageous feature that they show the pharmacological effect after being metabolized to an active metabolite (des-ciclesonide) at the site of inflammation. The amount of the active metabolite produced when the compound of the present invention was applied to inflamed skin (skin whose dermatitis was induced by DNCB) or non-inflamed skin (normal skin) was compared.
Using, as the test region, an area of 3 cm×4 cm on the abdomen of a hairless rat of 9 weeks old, 0.4 mL of 1% DNCB/acetone solution was applied to the inside of the region under isoflurane anesthesia, to carry out sensitization. Two weeks later, 1 mL of 1% DNCB/acetone solution was applied to the inside of the region to cause induction, and, 48 hours thereafter, 0.1 mL of a test drug (0.1% ointment) was uniformly applied to the test region. The skin was removed 48 hours after the beginning of the application of the test drug. On the other hand, the test drug was also applied to a normal animal which had not been subjected to the sensitization and the induction, and the skin was removed 48 hours later. […] After centrifugation (10,000 g, 4° C., 5 min.), the centrifugal supernatant was subjected to quantification of the amount of the active metabolite (des-ciclesonide) using LC/MS/MS. […]

[5] = drug concentration 0.01% ointment
[6] = drug concentration 0.10% ointment

| SMILES | Edema suppression rate of 6 hours after administration of inflammatory agent (%) ([1]; ointment concentration 0.001%) | Edema suppression rate of 24 hours after administration of inflammatory agent (%) ([1]; ointment concentration 0.001%) | Edema suppression rate of 6 hours after administration of inflammatory agent (%) ([1]; ointment concentration 0.01%) | Edema suppression rate of 24 hours after administration of inflammatory agent (%) ([1]; ointment concentration 0.01%) | Edema suppression rate of 6 hours after administration of inflammatory agent (%) ([1]; ointment concentration 0.1%) | Edema suppression rate of 24 hours after administration of inflammatory agent (%) ([1]; ointment concentration 0.1%) | Rate of exudates suppression (pharmacological effects) ([2]; dose 0.001 mg/rat into pouch) | Rate of thymus atrophy (systemic side effects) ([2]; dose 0.001 mg/rat into pouch) | Rate of exudates suppression (pharmacological effects) ([2]; dose 0.01 mg/rat into pouch) | Rate of thymus atrophy (systemic side effects) ([2]; dose 0.01 mg/rat into pouch) | Rate of exudates suppression (pharmacological effects) ([2]; dose 0.1 mg/rat into pouch) | Rate of thymus atrophy (systemic side effects) ([2]; dose 0.1 mg/rat into pouch) | Rate of exudates suppression (pharmacological effects) ([2]; dose 1 mg/rat into pouch) | Rate of thymus atrophy (systemic side effects) ([2]; dose 1 mg/rat into pouch) | Rate of Skin thickness suppression (pharmacological effects) (%) [3, 5] | Rate of thymus atrophy (systemic side effects) (%) [3, 5] | Rate of Skin thickness suppression (pharmacological effects) (%) [3, 6] | Rate of thymus atrophy (systemic side effects) (%) [3, 6] | Drug concentration of active metabolite (Compound C), 48 hours after test drug were applied once ([4]; DNCB-induced dermatitis skin) | Drug concentration of active metabolite (Compound C), 48 hours after test drug were applied once ([4]; non-inflamed skin (normal skin)) |
| --- | --- | --- | --- | --- | --- | --- | --- | --- | --- | --- | --- | --- | --- | --- | --- | --- | --- | --- | --- | --- |
| CC(=O)OCC1OC(OCC(=O)C23OC(C4CCCCC4)OC2CC2C4CCC5=CC(=O)C=CC5(C)C4C(O)CC23C)C(OC(C)=O)C(OC(C)=O)C1OC(C)=O (stereo not shown) [Compound 3] | 50.3% | 48.1% | 46.1% | 58.0% | 51.7% | 56.0% | 7.9% | 0.0% | 41.6% | 0.0% | 92.7% | 0.0% | 96.3% | 2.4% | 46.1% | 0.0% | 60.5% | 0.0% | 1272 ± 276 (ng/g) | 119 ± 48 (ng/g) |
| CC(=O)OC1C(C)OC(OCC(=O)C23OC(C4CCCCC4)OC2CC2C4CCC5=CC(=O)C=CC5(C)C4C(O)CC23C)C(OC(C)=O)C1OC(C)=O (stereo not shown) [Compound 9] | 24.6% | 17.8% | 36.7% | 8.6% | 23.0% | 21.6% | 10.4% | 12.2% | 7.3% | 10.8% | 26.1% | 9.4% | 58.2% | 15.5% |  |  |  |  |  |  |
| CC(=O)OC1C(C)OC(OCC(=O)C23OC(C4CCCCC4)OC2CC2C4CCC5=CC(=O)C=CC5(C)C4C(O)CC23C)C(OC(C)=O)C1OC(C)=O (stereo not shown) [Compound 10] | 42.4% | 45.8% | 55.9% | 33.2% | 38.9% | 39.9% | 4.6% | 0.0% | 0.0% | 0.0% | 4.8% | 0.0% | 5.3% | 0.0% |  |  |  |  |  |  |
| CC(=O)NC1C(OCC(=O)C23OC(C4CCCCC4)OC2CC2C4CCC5=CC(=O)C=CC5(C)C4C(O)CC23C)OC(COC(C)=O)C(OC(C)=O)C1OC(C)=O (stereo not shown) [Compound 11] | 24.5% | 39.4% | 19.0% | 26.5% | 33.6% | 48.0% | 13.1% | 3.9% | 21.2% | 7.9% | 66.0% | 10.8% | 93.4% | 16.0% |  |  |  |  |  |  |
| CC(=O)NC1C(OCC(=O)C23OC(C4CCCCC4)OC2CC2C4CCC5=CC(=O)C=CC5(C)C4C(O)CC23C)OC(COC(C)=O)C(OC(C)=O)C1OC(C)=O (stereo not shown) [Compound 12] | 29.9% | 36.6% | 16.7% | 29.6% | 12.4% | 9.1% | 3.6% | 0.0% | 0.0% | 5.8% | 0.0% | 17.7% | 76.5% | 8.0% |  |  |  |  |  |  |
